The record followed here is patent US20260053767A1, “Hepatoprotective Compositions And Methods” (Jemyll, Ltd., priority 2022, published 2026).

For one experiment, the system named is rat primary HSCs. The experiment in a line: HSCs activation by flow cytometry (α-SMA and collagen type I protein expression). The settings on record: 3 days CM from palmitate-treated hepatocytes, then 1% (w/vol) for 24 hours, without compound 25.15%. Format: cell-based. The protocol:
A 10% (w/v) FFA-free BSA (Sigma) solution was prepared in ddH2O and maintained at 55° C. in a water bath. 10 mM FFA/1% BSA solution was obtained by complexing the appropriate amount of palmitate stock solution to 10% BSA at 55° C. for another 30 min. The above solution was then cooled to 25° C., filter sterilized and stored at −20° C. until use. Primary hepatocytes were grown in DMEM supplemented with palmitate (0.4 mM). After 24 h. CM was clarified by centrifugation at 6000 g to remove cell debris, sterile filtered with a 0.45 μm pore size membrane filter and stored in aliquots at −20° C. until use.
Hepatic Stellate cells: Primary hepatic stellate cells were isolated from Wistar rats as described previously (7). In brief, the rats were surgically opened under anesthesia, and the livers were perfused through the IVC with 0.5 mM EGTA, after which the portal vein was cut and the upper IVC was clamped. […] HSCs activation was assessed by flow cytometry by evaluating alpha-smooth muscle Actin (α-SMA) and Collagen type I alpha 1 (COLIA1) protein expression. α-SMA and COLIA1 antibodies were obtained from Thermo Fisher scientific (Waltham, MA). Flow cytometric analysis was conducted with CytoFlex (Beckman Coulter, Brea, CA) and data analyzed with Kaluza software (Beckman Coulter, Brea, CA). […]
On the technique in general: In flow cytometry, cells or beads pass a laser one at a time.

The next experiment deals with cancer bearing mice. The experiment in a line: Administration of DDDA to cancer bearing mice. As to conditions: mouse, in vivo. The source says:
Thus, DDDA in low doses (5 g or less, or 4 g or less, or 3 g, or less, or 2 g or less, or 1 g or less) may be used for chemoprevention of HCC in healthy liver or livers of NASH/NAFLD individuals, presumably due to reduction of chronic subacute inflammation.

In experiment [1] the test system is primary human hepatocytes. The experiment in a line: In vitro citrate uptake. It is filed as cell-based. The settings on record: citrate 150 μM; for citrate uptake: vs untreated cells. The protocol:
Isolation of human primary hepatocytes: Tissue obtained during percutaneous liver biopsy, was diced (<3 mm) and washed in HBSS to remove excess blood. Tissue was then transferred to a tube containing pre-warmed EGTA buffer (HBSS, 0.5 mM EGTA, 0.5% fatty acid free bovine serum albumin (BSA)) and agitated (100 rpm) in a water bath with shaking bed for 10 min, 37° C. After three washes, to remove the remaining blood and EGTA, the tissue was placed in pre-warmed digestion buffer (HBSS, 0.05% collagenase IV, 0.5% fatty acid free BSA, 10 mM CaC12) and agitated (100 rpm) in a water bath with shaking bed for 30 min, 37° C. The digested tissue was filtered through 100 μm cell strainer while the remaining tissue was again digested in fresh digestion buffer (20). Cell suspensions were pooled and centrifuged at 80 g for 5 min, 4° C. and the supernatant discarded. Cells were grown until confluent and used for citrate uptake analysis.
In vitro Citrate Uptake: Primary human hepatocytes were incubated with or without Dodecanedioic acid, sodium salt (0.1-0.25-0.5-1-1.5% w/vol) for 30 minutes. Following the incubation step, citrate was added at a final concentration of 150 μM for 40 minutes. At the end of the stimulation citrate uptake was assessed by a commercial Citrate Assay Kit and data analyzed with Varioskan LUX multimode microplate reader.

Regarding `O=C(O)CCCCCCCCCCC(=O)O` [DDDA, dodecanedioic acid], the “expression of COLA1A and α-SMA (flow cytometry)” value in the experiment with rat primary HSCs is recorded as 9.18%. In the experiment with cancer bearing mice, the “effect in cancer bearing mice” value is “helpful for liver blastomas and potentially NASH associated carcinomas”. Besides, the citrate uptake result in experiment [1] (C12 1% (v/w)) and in experiment [1] (C12 1.5% (v/w)) was “significant decrease” throughout. Besides, the “citrate uptake (figure legend)” value in experiment [1] (C12 0.1-1.5% v/w) is recorded as “inhibits citrate uptake”.
